Drawing on ChEMBL document CHEMBL6134788, “Development of naphthalimide hydrazide derivatives as potent antibacterial agents against carbapenem-resistant A. baumannii” (RSC Med Chem, 2024), this text covers MIC, FIC and CC50 for one compound.

For data set [1], the system named is Acinetobacter baumannii. The experiment in a line: Antibacterial activity against multi-drug resistant Acinetobacter baumannii BC-5 assessed as inhibition of bacterial growth incubated for 16 to 18 hrs by CLSI protocol based method. As to conditions: time 16-18 hrs, read-out: MIC100. The data set is classed as functional.
The test system of data set [2] is Acinetobacter baumannii. The experiment in a line: Antibacterial activity against multi-drug resistant Acinetobacter baumannii 5-143 assessed as inhibition of bacterial growth incubated for 16 to 18 hrs by CLSI protocol based method. Format: functional. Particulars: time 16-18 hrs, read-out: MIC100.
In data set [3] the test system is Acinetobacter baumannii. The experiment in a line: Antibacterial activity against carbapenem-resistant Acinetobacter baumannii BAA 1605 assessed as inhibition of bacterial growth by measuring polymyxin B MIC incubated 24 hrs by checkerboard method. The data set is classed as functional.
Data set [4] relates to Acinetobacter baumannii. The experiment in a line: Antibacterial activity against multi-drug resistant Acinetobacter baumannii clinical isolate 1 assessed as inhibition of bacterial growth incubated for 16 to 18 hrs by CLSI protocol based method. The data set is classed as functional. As to conditions: time 16-18 hrs, read-out: MIC100.
Data set [5] has as its system Acinetobacter baumannii. The experiment in a line: Antibacterial activity against carbapenem-resistant Acinetobacter baumannii BAA 1605 assessed as inhibition of bacterial growth by measuring amikacin MIC incubated 24 hrs by checkerboard method. The data set is classed as functional.
Data set [6] deals with Acinetobacter baumannii. The experiment in a line: Antibacterial activity against multi-drug resistant Acinetobacter baumannii clinical isolate 7 assessed as inhibition of bacterial growth incubated for 16 to 18 hrs by CLSI protocol based method. The data set is classed as functional. As to conditions: time 16-18 hrs, read-out: MIC100.
Data set [7] relates to Acinetobacter baumannii. The experiment in a line: Antibacterial activity against carbapenem-resistant Acinetobacter baumannii BAA 1605 assessed as minocycline MIC by measuring fractional inhibitory concentration incubated 24 hrs by checkerboard method relative to minocycline alone. The data set is classed as functional.
The test system of data set [8] is Acinetobacter baumannii. Briefly: Antibacterial activity against multi-drug resistant Acinetobacter baumannii clinical isolate 6 assessed as inhibition of bacterial growth incubated for 16 to 18 hrs by CLSI protocol based method. Particulars: time 16-18 hrs, read-out: MIC100. The data set is classed as functional.
Data set [9] relates to Acinetobacter baumannii. Briefly: Antibacterial activity against multi-drug resistant Acinetobacter baumannii WL-487 assessed as inhibition of bacterial growth incubated for 16 to 18 hrs by CLSI protocol based method. Format: functional. Particulars: time 16-18 hrs, read-out: MIC100.
The subject of data set [10] is Acinetobacter baumannii. Briefly: Antibacterial activity against carbapenem-resistant Acinetobacter baumannii BAA 1605 assessed as inhibition of bacterial growth by measuring levofloxacin MIC incubated 24 hrs by checkerboard method. Format: functional.
In data set [11] the test system is Acinetobacter baumannii. The experiment in a line: Antibacterial activity against carbapenem-resistant Acinetobacter baumannii BAA 1605 assessed as inhibition of bacterial growth by measuring minocycline MIC incubated 24 hrs by checkerboard method. The data set is classed as functional.
Data set [12] relates to Acinetobacter baumannii. Briefly: Antibacterial activity against carbapenem-resistant Acinetobacter baumannii BAA 1605 assessed as inhibition of bacterial growth incubated for 16 to 18 hrs by CLSI protocol based method. Format: functional. As to conditions: time 16-18 hrs, read-out: MIC100.
Data set [13] relates to Acinetobacter baumannii. The experiment in a line: Antibacterial activity against multi-drug resistant Acinetobacter baumannii H72721 assessed as inhibition of bacterial growth incubated for 16 to 18 hrs by CLSI protocol based method. Format: functional. As to conditions: time 16-18 hrs, read-out: MIC100.
Data set [14] has as its system Acinetobacter baumannii. The experiment in a line: Antibacterial activity against multi-drug resistant Acinetobacter baumannii clinical isolate 9 assessed as inhibition of bacterial growth incubated for 16 to 18 hrs by CLSI protocol based method. The data set is classed as functional. As to conditions: time 16-18 hrs, read-out: MIC100.
Data set [15] relates to Acinetobacter baumannii. Briefly: Antibacterial activity against carbapenem-resistant Acinetobacter baumannii BAA 1605 assessed as polymyxin B MIC by measuring fractional inhibitory concentration incubated 24 hrs by checkerboard method relative to polymyxin B alone. The data set is classed as functional.
In data set [16] the test system is Acinetobacter baumannii. The experiment in a line: Antibacterial activity against carbapenem-resistant Acinetobacter baumannii BAA 1605 assessed as levofloxacin MIC by measuring fractional inhibitory concentration incubated 24 hrs by checkerboard method relative to levofloxacin alone. The data set is classed as functional.
Data set [17] has as its system Acinetobacter baumannii. Briefly: Antibacterial activity against carbapenem-resistant Acinetobacter baumannii BAA 1605 assessed as inhibition of bacterial growth incubated 24 hrs in presence of rifampicin by checkerboard method. Format: functional.
In data set [18] the test system is Acinetobacter baumannii. The experiment in a line: Antibacterial activity against multi-drug resistant Acinetobacter baumannii clinical isolate 10 assessed as inhibition of bacterial growth incubated for 16 to 18 hrs by CLSI protocol based method. The data set is classed as functional. Particulars: time 16-18 hrs, read-out: MIC100.
The nature of data set [19]: Cytotoxicity against African green monkey Vero cells assessed as reduction in cell viability incubated for 72 hrs by MTT assay. Particulars: chlorocebus sabaeus. The data set is classed as toxicity, cell-based.
Data set [20] relates to Acinetobacter baumannii. Briefly: Antibacterial activity against carbapenem-resistant Acinetobacter baumannii BAA 1605 assessed as inhibition of bacterial growth incubated 24 hrs in presence of amikacin by checkerboard method. Format: functional.
The subject of data set [21] is Acinetobacter baumannii. The experiment in a line: Synergistic antibacterial activity against carbapenem-resistant Acinetobacter baumannii BAA 1605 assessed as inhibition of bacterial growth incubated 24 hrs in presence of tobramycin by checkerboard method. The data set is classed as functional.

Converted amounts (≈) assume the structure as drawn.

By CC50 is commonly meant the concentration giving 50% cytotoxicity.

Take `O=C(CCN1C(=O)c2cccc3cccc(c23)C1=O)NNc1ccc(Br)cc1`: the MIC was found to be 0.5 µg/mL (≈ 1.14 µM) in the data set with Acinetobacter baumannii [1]; 0.25 µg/mL (≈ 0.57 µM) with Acinetobacter baumannii [2]; 0.25 µg/mL with Acinetobacter baumannii [3]; 0.25 µg/mL (≈ 0.57 µM) in the data set with Acinetobacter baumannii [4]; 2 µg/mL in the data set with Acinetobacter baumannii [5]; 0.5 µg/mL (≈ 1.14 µM) in the data set with Acinetobacter baumannii [6]. Also, the MIC in the data set with Acinetobacter baumannii [8] is 0.5 µg/mL (≈ 1.14 µM); with Acinetobacter baumannii [9], 0.5 µg/mL (≈ 1.14 µM); in the data set with Acinetobacter baumannii [10] it was 8 µg/mL; with Acinetobacter baumannii [11], 4 µg/mL; in the data set on Acinetobacter baumannii [12], 0.5 µg/mL (≈ 1.14 µM); in the data set with Acinetobacter baumannii [13], 0.5 µg/mL (≈ 1.14 µM). Further, the MIC in the data set with Acinetobacter baumannii [14] amounted to 0.5 µg/mL (≈ 1.14 µM); in the data set with Acinetobacter baumannii [17], 0.5 µg/mL; in the data set with Acinetobacter baumannii [18], 0.5 µg/mL (≈ 1.14 µM); in the data set with Acinetobacter baumannii [20], 0.25 µg/mL; in the data set on Acinetobacter baumannii [21], 0.25 µg/mL. The results for the FIC in the data set on Acinetobacter baumannii [7], in the data set with Acinetobacter baumannii [15] and in the data set on Acinetobacter baumannii [16] were 1, 0.5 and 1, respectively. The CC50 at 72 h in data set [19] is more than 100 µg/mL.
